Measured values: US20080063668A1, “Nitroimidazole and terconazole composition and method” (priority 2006, published 2008)

What was measured:
[1] = system: Gardnerella vaginalis ATCC 14019; experiment: Inhibition of bacteria growth, drug dilution tubes, anaerobic; format: cell-based; set-up: key to growth: (+) for growth; (−) for no growth; (±) for suboptimal growth after an initial observation of growth
Procedure: (§1) Serial dilutions of tinidazole and terconazole were prepared by adding measured amounts of each substance to water (both individually and in combination). Seven bacterial organisms that are common pathogens in bacterial vaginosis were grown anaerobically in the medium as listed in Table 4 under a N2/H2/CO2 (85:5:10) head space atmosphere. [table] These cultures were diluted to a 0.5 McFarland standard prior to inoculation of drug dilution tubes. One (1) mL of the 0.5 McFarland preparation was inoculated to an anaerobically prepared test tube containing 0.8 mL of Difco anaerobic medium (DAMM) and 0.2 mL of appropriate diluted antimicrobial or antimicrobial combination for a total of 2 mL. The inoculated tubes were then incubated at 37° C. and monitored daily for growth. Growth was scored with a (+) for growth, (−) for no growth, and (±) for suboptimal growth after an initial observation of growth. Tinidazole is abbreviated as TNZ and terconazole is abbreviated as TER in Tables 5 through 11.

[2] = system: Atopobium vaginae BAA-55; experiment: as above; format: cell-based; set-up: key to growth: (+) for growth; (−) for no growth; (±) for suboptimal growth after an initial observation of growth
Procedure: as §1

[3] = system: Mobiluncus curtisii var. holmesii ATCC 35242; experiment: as above; format: cell-based; set-up: key: (+) for growth; (−) for no growth; (±) for suboptimal growth after an initial observation of growth
Procedure: as §1

[4] = neutral pH; cited from earlier work

For CC(C)N1CCN(c2ccc(OCC3COC(Cn4cncn4)(c4ccc(Cl)cc4Cl)O3)cc2)CC1 (stereo not drawn) [TER, cis-1-[p[[2-(2,4-dichlorophenyl)-2-(1 H-1,2,4-triazol-1-ylmethyl)-1,3-dioxolan-4-yl]methoxy]phenyl]-4-isopropylpiperazine], the “antibacterial activity compared with tinidazole” value [1] was “superior to the antibacterial compound tinidazole”, the growth ([1]; TER 3.1 μg/ml, DAY 1) was “(+)” and the growth ([1]; TER 3.1 μg/ml, DAY 2) was “(+)”. For the same compound, the growth ([1]; TER 3.1 μg/ml, DAY 3) was “(+)”, the growth ([1]; TER 3.1 μg/ml, DAY 4) was “(+)” and the growth ([1]; TER 3.1 μg/ml, DAY 5) was “(+)”. For the same compound, the growth ([1]; TER 6.2 μg/ml, DAY 1) was “(+)”, the growth ([1]; TER 6.2 μg/ml, DAY 2) was “(+)” and the growth ([1]; TER 6.2 μg/ml, DAY 3) was “(+)”. The growth ([1]; TER 6.2 μg/ml, DAY 4) was “(+)”, the growth ([1]; TER 6.2 μg/ml, DAY 5) was “(+)” and the growth ([1]; TER 12.5 μg/ml, DAY 1) was “(+)”. The growth ([1]; TER 12.5 μg/ml, DAY 2) was “(+)”, the growth ([1]; TER 12.5 μg/ml, DAY 3) was “(+)” and the growth ([1]; TER 12.5 μg/ml, DAY 4) was “(+)”. For the same compound, the growth ([1]; TER 12.5 μg/ml, DAY 5) was “(+)”, the growth ([1]; TER 25 μg/ml, DAY 1) was “(+)” and the growth ([1]; TER 25 μg/ml, DAY 2) was “(+)”. For the same compound, the growth ([1]; TER 25 μg/ml, DAY 3) was “(+)”, the growth ([1]; TER 25 μg/ml, DAY 4) was “(+)” and the growth ([1]; TER 25 μg/ml, DAY 5) was “(+)”. For the same compound, the growth ([1]; TER 50 μg/ml, DAY 1) was “(+)”, the growth ([1]; TER 50 μg/ml, DAY 2) was “(+)” and the growth ([1]; TER 50 μg/ml, DAY 3) was “(+)”. The growth ([1]; TER 50 μg/ml, DAY 4) was “(+)”, the growth ([1]; TER 50 μg/ml, DAY 5) was “(+)” and the growth ([1]; TER 100 μg/ml, DAY 1) was “(+)”. The growth ([1]; TER 100 μg/ml, DAY 2) was “(+)”, the growth ([1]; TER 100 μg/ml, DAY 3) was “(+)” and the growth ([1]; TER 100 μg/ml, DAY 4) was “(+)”. The growth ([1]; TER 100 μg/ml, DAY 5) was “(+)”, the growth ([1]; TER 200 μg/ml, DAY 1) was “(+)” and the growth ([1]; TER 200 μg/ml, DAY 2) was “(+)”. For the same compound, the growth ([1]; TER 200 μg/ml, DAY 3) was “(+)”, the growth ([1]; TER 200 μg/ml, DAY 4) was “(+)” and the growth ([1]; TER 200 μg/ml, DAY 5) was “(+)”. For the same compound, the growth ([1]; TER 400 μg/ml, DAY 1) was “(+)”, the growth ([1]; TER 400 μg/ml, DAY 2) was “(+)” and the growth ([1]; TER 400 μg/ml, DAY 3) was “(+)”. For the same compound, the growth ([1]; TER 400 μg/ml, DAY 4) was “(+)”, the growth ([1]; TER 400 μg/ml, DAY 5) was “(+)” and the growth ([1]; TER 800 μg/ml, DAY 1) was “(−)”. The growth ([1]; TER 800 μg/ml, DAY 2) was “(−)”, the growth ([1]; TER 800 μg/ml, DAY 3) was “(−)” and the growth ([1]; TER 800 μg/ml, DAY 4) was “(−)”. The growth ([1]; TER 800 μg/ml, DAY 5) was “(−)”, the growth ([2]; TER 3.1 μg/ml, DAY 1) was “(+)” and the growth ([2]; TER 3.1 μg/ml, DAY 2) was “(+)”. For the same compound, the growth ([2]; TER 3.1 μg/ml, DAY 3) was “(+)”, the growth ([2]; TER 3.1 μg/ml, DAY 4) was “(+)” and the growth ([2]; TER 3.1 μg/ml, DAY 5) was “(+)”. The growth ([2]; TER 6.2 μg/ml, DAY 1) was “(+)”, the growth ([2]; TER 6.2 μg/ml, DAY 2) was “(+)” and the growth ([2]; TER 6.2 μg/ml, DAY 3) was “(+)”. For the same compound, the growth ([2]; TER 6.2 μg/ml, DAY 4) was “(+)”, the growth ([2]; TER 6.2 μg/ml, DAY 5) was “(+)” and the growth ([2]; TER 12.5 μg/ml, DAY 1) was “(+)”. For the same compound, the growth ([2]; TER 12.5 μg/ml, DAY 2) was “(+)”, the growth ([2]; TER 12.5 μg/ml, DAY 3) was “(+)” and the growth ([2]; TER 12.5 μg/ml, DAY 4) was “(+)”. For the same compound, the growth ([2]; TER 12.5 μg/ml, DAY 5) was “(+)”, the growth ([2]; TER 25 μg/ml, DAY 1) was “(+)” and the growth ([2]; TER 25 μg/ml, DAY 2) was “(+)”. For the same compound, the growth ([2]; TER 25 μg/ml, DAY 3) was “(+)”, the growth ([2]; TER 25 μg/ml, DAY 4) was “(+)” and the growth ([2]; TER 25 μg/ml, DAY 5) was “(+)”. The growth ([2]; TER 50 μg/ml, DAY 1) was “(+)”, the growth ([2]; TER 50 μg/ml, DAY 2) was “(+)” and the growth ([2]; TER 50 μg/ml, DAY 3) was “(+)”. The growth ([2]; TER 50 μg/ml, DAY 4) was “(+)”, the growth ([2]; TER 50 μg/ml, DAY 5) was “(+)” and the growth ([2]; TER 100 μg/ml, DAY 1) was “(−)”. The growth ([2]; TER 100 μg/ml, DAY 2) was “(−)”, the growth ([2]; TER 100 μg/ml, DAY 3) was “(+)” and the growth ([2]; TER 100 μg/ml, DAY 4) was “(+)”. The growth ([2]; TER 100 μg/ml, DAY 5) was “(+)”, the growth ([2]; TER 200 μg/ml, DAY 1) was “(−)” and the growth ([2]; TER 200 μg/ml, DAY 2) was “(−)”. For the same compound, the growth ([2]; TER 200 μg/ml, DAY 3) was “(−)”, the growth ([2]; TER 200 μg/ml, DAY 4) was “(+)” and the growth ([2]; TER 200 μg/ml, DAY 5) was “(+)”. The growth ([2]; TER 400 μg/ml, DAY 1) was “(−)”, the growth ([2]; TER 400 μg/ml, DAY 2) was “(−)” and the growth ([2]; TER 400 μg/ml, DAY 3) was “(−)”. For the same compound, the growth ([2]; TER 400 μg/ml, DAY 4) was “(−)”, the growth ([2]; TER 400 μg/ml, DAY 5) was “(−)” and the growth ([2]; TER 800 μg/ml, DAY 1) was “(−)”. The growth ([2]; TER 800 μg/ml, DAY 2) was “(−)”, the growth ([2]; TER 800 μg/ml, DAY 3) was “(−)” and the growth ([2]; TER 800 μg/ml, DAY 4) was “(−)”. For the same compound, the growth ([2]; TER 800 μg/ml, DAY 5) was “(−)”, the “antibacterial activity compared with tinidazole” value ([2]; Tables 6 through 11) was “superior to the antibacterial compound tinidazole” and the growth ([3]; TER 3.1 μg/ml, DAY 1) was “(+)”. For the same compound, the growth ([3]; TER 3.1 μg/ml, DAY 2) was “(+)”, the growth ([3]; TER 3.1 μg/ml, DAY 3) was “(+)” and the growth ([3]; TER 3.1 μg/ml, DAY 4) was “(+)”. The growth ([3]; TER 3.1 μg/ml, DAY 5) was “(+)”, the growth ([3]; TER 6.2 μg/ml, DAY 1) was “(+)” and the growth ([3]; TER 6.2 μg/ml, DAY 2) was “(+)”. For the same compound, the growth ([3]; TER 6.2 μg/ml, DAY 3) was “(+)”, the growth ([3]; TER 6.2 μg/ml, DAY 4) was “(+)” and the growth ([3]; TER 6.2 μg/ml, DAY 5) was “(+)”. For the same compound, the growth ([3]; TER 12.5 μg/ml, DAY 1) was “(+)”, the growth ([3]; TER 12.5 μg/ml, DAY 2) was “(+)” and the growth ([3]; TER 12.5 μg/ml, DAY 3) was “(+)”. The growth ([3]; TER 12.5 μg/ml, DAY 4) was “(+)”, the growth ([3]; TER 12.5 μg/ml, DAY 5) was “(+)” and the growth ([3]; TER 25 μg/ml, DAY 1) was “(+)”. For the same compound, the growth ([3]; TER 25 μg/ml, DAY 2) was “(+)”, the growth ([3]; TER 25 μg/ml, DAY 3) was “(+)” and the growth ([3]; TER 25 μg/ml, DAY 4) was “(+)”. The growth ([3]; TER 25 μg/ml, DAY 5) was “(+)”, the growth ([3]; TER 50 μg/ml, DAY 1) was “(+)” and the growth ([3]; TER 50 μg/ml, DAY 2) was “(+)”. The growth ([3]; TER 50 μg/ml, DAY 3) was “(+)”, the growth ([3]; TER 50 μg/ml, DAY 4) was “(+)” and the growth ([3]; TER 50 μg/ml, DAY 5) was “(+)”. The growth ([3]; TER 100 μg/ml, DAY 1) was “(+)”, the growth ([3]; TER 100 μg/ml, DAY 2) was “(+)” and the growth ([3]; TER 100 μg/ml, DAY 3) was “(+)”. The growth ([3]; TER 100 μg/ml, DAY 4) was “(+)”, the growth ([3]; TER 100 μg/ml, DAY 5) was “(+)” and the growth ([3]; TER 200 μg/ml, DAY 1) was “(+)”. The growth ([3]; TER 200 μg/ml, DAY 5) was “(+)”, the growth ([3]; TER 400 μg/ml, DAY 1) was “(+)” and the growth ([3]; TER 400 μg/ml, DAY 5) was “(+)”. The growth ([3]; TER 800 μg/ml, DAY 1) was “(+)”, the growth ([3]; TER 800 μg/ml, DAY 5) was “(+)” and the “solubility in water (in words)” value [4] was “substantially insoluble”.
